{"source": "patent US9744236B2", "about": "“Photolabile compounds” (The Trustees of Columbia University in the City of New York, priority 2009, dated 2017)", "key": {"[1]": {"assay": "Behaviour of modified rhodamine ligand at physiological pH", "assay_type": "physicochemical", "excerpt": "Given these properties, the chemical structure of rhodamine B was modified by adding a “sticky tail” in order to coordinate the fluorescent molecule to the metal center. In a first attempt to synthesize a modified rhodamine bearing a coordinating group, carboxylate was amidated with aminopropionitrile, using the Adamczyk procedure (Adamczyk, M. J. Bioorg. Med. Chem. Lett. 2000, 10: 1539-1541). The obtained compound is RhodB-APN, indicated in scheme 1B. […] Rhodamine 6G can be modified similarly to the rhodamine B, described above."}, "[2]": {"settings": "in aqueous solutions; cited from earlier work"}, "[3]": {"assay": "1H-NMR in D2O, isotopic exchange / inertness", "assay_type": "physicochemical", "settings": "2 months in D2O at room temperature", "excerpt": "The aliphatic region corresponding to the glutamate moiety is depicted in the upper trace of FIG. 18, where —NH2 protons appear at 4.50, 4.12, 4.00 and 3.57 ppm. […] This behavior differs from that of free glutamate which, under the same conditions, exchanges rapidly D+ for H+."}, "[4]": {"assay": "Cyclic voltammetry, redox potential", "assay_type": "physicochemical", "settings": "acetonitrile, vs. NHE", "procedure": "UV-vis spectra in water were obtained with an HP 8453 diode array spectrophotometer. RMN ^1H spectra were obtained using a Bruker 500 MHz equipment. CV measurements were performed with a PAR 273A potentiostat. Irradiation was effected by means of a pulsed Xe lamp, (pulse energy ˜0.5 J), with a low-pass filter at 480 nm. Irradiation using a 473 nm DPSS laser gave similar results.\n(See, e.g., E. S. Dodsworth et al., 1986, Chem. Phys. Lett., 124:152-158). The photoactivity of these compounds has been explained in terms of a reaction pathway that involves the transition between the MLCT state to a lower-energy d-d state, which promotes ligand release. There is a direct correspondence between the energy of the MLCT transition and the quantum yield of the photoreaction. For [Ru(bpy)2(4AP)CH3CN]^2+, the photoreaction yield is about φPR=0.4. Since [Ru(bpy)2(4AP)2]Cl2 presents a red-shifted band, a lower photoreaction yield is expected. An estimate based on early experiments leads to an estimate of φPR≅0.02 at 473 nm.\nIts aqueous solutions present a strong metal to ligand charge-transfer band (MLCT band) at 450 nm, characteristic of this family of Ru polypyridines."}, "[5]": {"tested_on": "living neocortical pyramidal neurons in mouse brain slices", "assay": "Biocompatibility test on brain slices (two-photon microscopy, whole-cell patch recordings)", "assay_type": "cell-based", "settings": "350 μM, 1 hour of incubation", "procedure": "Biocompatibility tests were performed to evaluate the potential toxicity of the complex. 350 μM [Ru(bpy)2(PMe3)Glu], a concentration used for two-photon uncaging experiments, was incubated with living neocortical pyramidal neurons in mouse brain slices, and carefully monitored the morphology and electrophysiological properties of the neurons using two-photon microscopy and whole-cell patch recordings."}, "[6]": {"assay": "Flash photolysis, uncaging time", "assay_type": "physicochemical", "settings": "basic aqueous solution, 532 nm, 10 ns pulse", "procedure": "In order to estimate the uncaging time, a flash photolysis experiment was performed on a basic aqueous solution of [Ru(bpy)2(PMe3)Glu] using the second harmonic of a Nd-YAGlaser (532 nm, 10 ns pulse). The photocleavage occurs within the first 50 ns, being the fastest reported caged compound, to our knowledge. The fact that a tens of nanoseconds are required to complete the glutamate uncaging reaction is compatible with the observation that the excited state lifetime measured for a similar compound containing pyridine instead of glutamate is in the range of 10-100 ns."}, "[7]": {"assay": "Photorelease of glutamate, UV-Vis during 450 nm LED irradiation", "assay_type": "physicochemical", "procedure": "As the photoreaction proceeds, the generation of the aquo complex was recorded to reach completion in about 4 minutes. The presence of two isosbestic points as well as a factor analysis performed on the spectra indicate that just two colored species are present in the solution, according to what is expected in a single photoaquation process. The spectrum of the photoproduct was found identical to that of the complex [Ru(bpy)2(PMe3)(H2O)]2^+, which can be synthesized by refluxing the chloro complex in water. At pH=11 a similar behavior was observed, although in this case the product is the hydroxo complex [Ru(bpy)2(PMe3)(OH)]^+.\nThe irradiance of the light source was calibrated using the known efficiency of the photolysis of [Ru(bpy)(Py)2]^2+. The amount of photoreleased glutamate was fitted using a two-parameter single-exponential function: y=a[1−exp(−bx)] and the quantum yield (φPC) was obtained as a•b, adopting a value of 0.13 at pH=7 and 0.10 at pH=11."}, "[8]": {"tested_on": "Retzius cells", "assay": "Injection of caged fluorescent probe into living neurons", "assay_type": "cell-based, Hirudo medicinalis", "settings": "short-term (˜2 h) experiments", "procedure": "Microscopy of leech (Hirudo medicinalis) ganglia was performed in a custom-made setup for photoelectrophisiology equipped with a micromanipulator used to impale the neuron body with the ˜1 μm tip diameter capillaries, and a CCD webcam as a registering device. An isolated leech ganglion from a segment between 7 and 14 was pinned down in a sylgard-coated, 35 mm Petri dish. Retzius cells were identified by their position, size, and firing behavior. Intracellular recordings were obtained with ˜20 MΩ sharp capillary microelectrodes, a Neuroprobe 1600 (A-M Systems) amplifier and a A/D signal acquisition board at 1 kHz sampling rate and custom-made software. For iontophoretical injection of the dye the microelectrode was filled with recording solution to which 1 mM caged fluorescent dye (chloride form) was added. Square, biphasic pulses of 1 nA, 2 Hz were applied for less that 5 min.\nThis example provides an activatable fluorescent probe with surprising sensitivity in the visible light region. It increases its intrinsic fluorescence up to 6-fold after blue light irradiation. […] The probe was used to image the laminar flow inside a thin spectrophotometric flow cell and to visualize the parabolic-shaped flow in a FIA capillary."}, "[9]": {"assay": "Fluorescence emission quantum yield before and after irradiation", "assay_type": "physicochemical", "settings": "after blue light (473 nm) irradiation", "excerpt": "All reagents were purchased from Sigma-Aldrich and used as received. Ru(bpy)2Cl2 was synthesized according to the literature using water as solvent (Viala, C.; Coudret, C. Inorg. Chim. Acta 2006, 359: 984-989). UV-vis spectra were taken with a HP8453 diode-array spectrometer. NMR spectra were obtained using a 500 MHz Bruker AM-500. Fluorescence emission measurements were made with a PTI Quantamaster spectrofluorometer, corrected for the instruments response function. Rhodamine B was used as fluorescence standard of emission quantum yield (φ=0.31 in aqueous solutions). Quantum yield of the complex was obtained directly from the ratio of the spectral areas, which present the same shape.\nFIG. 20 depicts the emission spectra of the complex during irradiation. The maximum and the shape of the initial emission spectrum is the same as that of the free ligand RhodB-MAPN but the emission quantum yield is much lower, around pt=0.04. Quantum yields are easily calculated integrating the spectral areas. After irradiation with a 473 nm laser, RhodB-MAPN is released and the solution increases its fluorescence up to 6 fold, to φt=0.24."}}}
{"smiles": "CCN(CC)c1ccc2c(-c3ccccc3C(=O)NCCC#N)c3ccc(=[N+](CC)CC)cc-3oc2c1", "note": "[RhodB-APN]", "values": [{"measurement": "stability of fluorescent form", "setting": "[1]", "value": "undergoes isomerization to the cyclic spirolactame form"}]}
{"smiles": "CCN(CC)c1ccc2c(-c3ccccc3C(=O)O)c3ccc(=[N+](CC)CC)cc-3oc2c1.[Cl-]", "note": "[Rhodamine B]", "values": [{"measurement": "emission quantum yield (fluorescence standard)", "setting": "[2]", "value": 0.31}]}
{"smiles": "CP(C)C.F[P-](F)(F)(F)(F)F.F[P-](F)(F)(F)(F)F.NC(CCC(=O)O)C(=O)O.[Ru+2].c1ccc(-c2ccccn2)nc1.c1ccc(-c2ccccn2)nc1", "note": "[[Ru(bpy)2(PMe3)GlutH2](PF6)2]", "values": [{"measurement": "isotopic exchange of coordinated -NH2 (inertness)", "setting": "[3]", "value": "no exchange is seen"}, {"measurement": "redox process, Ru(III)/Ru(II) couple of the original complex", "setting": "[4]", "value": 0.98, "unit": "V"}, {"measurement": "effects on morphology and electrophysiological properties of neurons", "setting": "[5]", "value": "no detectable effects were observed"}, {"measurement": "photocleavage time", "setting": "[6]", "value": "≤ 50", "unit": "ns"}, {"measurement": "quantum yield (φPC) of glutamate photorelease", "setting": "[7]; pH=7", "value": 0.13}, {"measurement": "time for photoreaction to reach completion", "setting": "[7]; pH=7, 450±20 nm LED", "value": "about 4 minutes"}, {"measurement": "quantum yield (φPC) of glutamate photorelease", "setting": "[7]; pH=11", "value": 0.10}]}
{"smiles": "CCN(CC)c1ccc2c(-c3ccccc3C(=O)N(C)CCC#N)c3ccc(=[N+](CC)CC)cc-3oc2c1.[Cl-].[Cl][Ru+].c1ccc(-c2ccccn2)nc1.c1ccc(-c2ccccn2)nc1", "note": "[[Ru(bpy)2(RhodB-MAPN)Cl]Cl]", "values": [{"measurement": "acute toxicity in injected living cells", "setting": "[8]", "value": "no sign of acute toxicity"}, {"measurement": "increase of fluorescence", "setting": "[9]", "value": "up to 6 fold"}]}
